Assay results as given in patent publication US9062078B2, “Substituted 7-azabicyles and their use as orexin receptor modulators” (priority 2013, dated 2015).
Where two headings read alike, the source gives them in different places.

Tests used:
human orexin 1 receptor = human orexin 1 receptor (Homo sapiens (Human), UniProt O43613); experiment: Human orexin 1 receptor radioligand binding (competitive, [3H]-SB674042, CHO cell preparations)
human orexin 2 receptor = human orexin 2 receptor (Homo sapiens (Human), UniProt O43614); experiment: Human orexin 2 receptor radioligand binding (competitive, [3H]-EMPA, HEK293 cell preparations)
Chain of human orexin 2 receptor (O43614 whole entry): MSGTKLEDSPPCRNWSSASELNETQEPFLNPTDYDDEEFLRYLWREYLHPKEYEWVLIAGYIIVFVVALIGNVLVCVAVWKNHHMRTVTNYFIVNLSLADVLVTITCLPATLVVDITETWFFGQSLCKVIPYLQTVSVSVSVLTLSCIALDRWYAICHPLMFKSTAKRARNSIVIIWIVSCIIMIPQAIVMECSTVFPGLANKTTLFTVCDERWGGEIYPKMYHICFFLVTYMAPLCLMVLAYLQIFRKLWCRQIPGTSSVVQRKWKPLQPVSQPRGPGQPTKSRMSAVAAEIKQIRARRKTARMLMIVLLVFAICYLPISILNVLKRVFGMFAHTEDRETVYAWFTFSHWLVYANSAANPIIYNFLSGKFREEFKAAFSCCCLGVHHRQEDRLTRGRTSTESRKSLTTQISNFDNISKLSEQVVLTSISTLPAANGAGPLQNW

rat orexin 1 receptor = rat orexin 1 receptor (Rattus norvegicus, UniProt P56718); experiment: Rat orexin 1 receptor radioligand binding (competitive, [3H]-SB674042, HEK293 cell preparations)
[1] = human orexin 2 receptor, [3H]-EMPA competition binding, read-out: hOX2 Ki (nm)

Chain of human orexin 1 receptor (O43613 whole entry): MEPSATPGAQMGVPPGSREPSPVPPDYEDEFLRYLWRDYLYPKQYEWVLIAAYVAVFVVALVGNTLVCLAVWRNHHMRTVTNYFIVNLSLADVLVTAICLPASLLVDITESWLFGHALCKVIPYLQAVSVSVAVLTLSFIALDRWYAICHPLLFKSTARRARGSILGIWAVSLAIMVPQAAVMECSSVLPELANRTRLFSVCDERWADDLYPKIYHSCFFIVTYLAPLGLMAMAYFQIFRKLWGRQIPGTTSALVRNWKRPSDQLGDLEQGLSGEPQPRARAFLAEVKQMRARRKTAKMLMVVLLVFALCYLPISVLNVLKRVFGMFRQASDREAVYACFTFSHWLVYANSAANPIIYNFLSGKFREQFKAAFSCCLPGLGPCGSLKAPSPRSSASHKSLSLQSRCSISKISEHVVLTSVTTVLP

SMILES	Ki (human orexin 1 receptor; read-out: hOX1 Ki (nm)) [nM]	Ki (human orexin 2 receptor; [1]) [nM]	Ki (rat orexin 1 receptor; read-out: rOX1 Ki (nm)) [nM]	Ki (rat orexin 1 receptor; rat orexin 1 receptor, [3H]-SB674042 competition binding, read-out: rOX1 Ki (nm)) [nM]	Ki (human orexin 1 receptor; hOX1 Ki (nm)) [nM]	Ki (human orexin 2 receptor; hOX2 Ki (nm)) [nM]	Ki (rat orexin 1 receptor; rOX1 Ki (nm)) [nM]	Ki (human orexin 1 receptor; human orexin 1 receptor, [3H]-SB674042 competition binding, read-out: hOX1 Ki (nm)) [nM]
O=C(c1cccc(F)c1-c1ncccn1)N1[C@@H]2CC[C@H]1[C@H](Nc1ncc(C(F)(F)F)cn1)C2 [Example 271, (3-fluoro-2-(pyrimidin-2-yl)phenyl)((1S,2R,4R)-2-((5-(trifluoromethyl)pyrimidin-2-yl)amino)-7-azabicyclo[2.2.1]heptan-7-yl)methanone]	42	2300	41	–	–	–	–	–
Cc1cccc(C(=O)N2[C@@H]3CC[C@H]2[C@H](Nc2ncc(C(F)(F)F)cn2)C3)c1-n1nccn1 [Example 272, (3-methyl-2-(2H-1,2,3-triazol-2-yl)phenyl)((1S,2R,4R)-2-((5-(trifluoromethyl)pyrimidin-2-yl)amino)-7-azabicyclo[2.2.1]heptan-7-yl)methanone]	26	742	21	–	–	–	–	–
Cc1cccc(C(=O)N2[C@@H]3CC[C@H]2[C@H](Nc2ncc(C(F)(F)F)cn2)C3)c1I [Example 276, (2-iodo-3-methylphenyl)((1S,2R,4R)-2-((5-(trifluoromethyl)pyrimidin-2-yl)amino)-7-azabicyclo[2.2.1]heptan-7-yl)methanone]	97	2500	–	133	–	–	–	–
Cc1cnc(N[C@@H]2C[C@H]3CC[C@@H]2N3C(=O)c2cccc(F)c2-c2ncccn2)cn1 [Example 278, (3-fluoro-2-(pyrimidin-2-yl)phenyl)((1S,2R,4R)-2-((5-methylpyrazin-2-yl)amino)-7-azabicyclo[2.2.1]heptan-7-yl)methanone]	77	934	87	–	–	–	–	–
O=C(c1cccc(F)c1-c1ncccn1)N1[C@@H]2CC[C@H]1[C@H](Nc1ccc(C(F)(F)F)cn1)C2 [Example 279, (3-fluoro-2-(pyrimidin-2-yl)phenyl)((1S,2R,4R)-2-((5-(trifluoromethyl)pyridin-2-yl)amino)-7-azabicyclo[2.2.1]heptan-7-yl)methanone]	–	–	–	–	8	1100	15	–
O=C(c1ccc(F)cc1-c1ncccn1)N1[C@@H]2CC[C@H]1[C@H](Nc1ccc(C(F)(F)F)cn1)C2 [Example 280, (4-fluoro-2-(pyrimidin-2-yl)phenyl)((1S,2R,4R)-2-((5-(trifluoromethyl)pyridin-2-yl)amino)-7-azabicyclo[2.2.1]heptan-7-yl)methanone]	37	1300	39	–	–	–	–	–
O=C(c1cccc(F)c1-c1ncco1)N1[C@@H]2CC[C@H]1[C@H](Nc1ncc(C(F)(F)F)cn1)C2 [Example 284, (3-fluoro-2-(oxazol-2-yl)phenyl)((1S,2R,4R)-2-((5-(trifluoromethyl)pyrimidin-2-yl)amino)-7-azabicyclo[2.2.1]heptan-7-yl)methanone]	27	1700	29	–	–	–	–	–
O=C(c1ncccc1-n1nccn1)N1[C@@H]2CC[C@H]1[C@H](Nc1cnc(C(F)(F)F)cn1)C2 [Example 288, (3-(2H-1,2,3-triazol-2-yl)pyridin-2-yl)((1S,2R,4R)-2-((5-(trifluoromethyl)pyrazin-2-yl)amino)-7-azabicyclo[2.2.1]heptan-7-yl)methanone]	–	1900	94	–	–	–	–	128
